Measured values published in US20080269163A1, “Methods and Compositions for Protecting Cells from Ultrasound-Mediated Cytolysis” (priority 2004, published 2008).
Entries after “also recorded” stand apart in the source; their conditions may differ. Blank lines part the entries; values can stand above or below the compound they belong to.

Columns and labels:
HL-60 cells [1] = test: Ultrasound-induced cytolysis of HL-60 cells, Coulter counter analysis; format: cell-based; details: for concentration giving complete (approximately 100%) protection from ultrasound induced cytolysis / effect on ultrasound induced cytolysis (% cytolysis): 1.057 MHz (1 MHz), 10 W; for concentration giving complete (approximately 100%) protection from ultrasound induced cytolysis / effect on ultrasound induced cytolysis (% cytolysis) / effect on ultrasound induced cytolysis: 5 s; for concentration giving complete (approximately 100%) protection from ultrasound induced cytolysis: air exposed; for cells protected from immediate cytolysis: 7 mM HGP; for change of protection from cytolysis as frequency is decreased: frequency decreased from 1 MHz to 42 kHz
Method: Cells: HL-60 myeloid leukemia cells (American Type Culture Collection) were grown in a suspension of RPMI 1640 medium (GIBCO, Gaithersburg, Md.) containing 10% calf serum. The population of HL-60 cells doubled every 23±1 hr (hour ±SEM) when incubated at 37° C. in a CO2 (5%) containing atmosphere. Cells were harvested, re-suspended in fresh RPMI medium and kept at 25° C. until the start of the experiment (typically less than 1 hr). […] The fraction of intact cells before and after ultrasound was determined using a Coulter multisizer (model IIe) connected to a sampling stand (model IIa). The number of intact cells was determined by counting the total number of particles under the bell shaped curve (e.g., FIG. 1a) before and following sonolysis. The cytolysis percentage was determined by subtracting the number of intact cells following sonolysis from the number of intact cells before sonolysis. This value was divided by the number of intact cells before sonolysis and multiplied by 100 to obtain the cytolysis percentage value.
The temperature of the coupling water was 25° C.
We have confirmed the validity of this technique for studying the effects of sonolysis in our ultrasound system by the trypan blue exclusion assay. The mean size of HL-60 cells was determined from the Coulter counter results prior to sonolysis and was approximately 650 μm3 (FIG. 1a) which equates to a mean cell diameter of […].
42 kHz sonolysis was conducted in a similar way but using a Branson ultrasound bath (model number 1510). […] At 42 kHz, a transducer was used to decrease the power of the bath to 50% of its original value. The temperature of the coupling water at all frequencies was 25° C.
(§1) The percentage of cytolysis of HL-60 cells was determined by measurement of the cell size distribution using a Coulter multisizer. This method correlates well with percentage cytolysis measured using the Trypan blue exclusion assay immediately following sonolysis and is explained in detail elsewhere (Miyoshi, N. et al. 2003). […] This immediate ultrasound induced cytolysis (i.e., % cytolysis) is represented in FIGS. 2, 10-12 at a concentration of zero.
42 kHz sonolysis was conducted in a similar way but using a Branson ultrasound bath (model number […]). […] At 42 kHz, a transducer was used to decrease the power of the bath to 50% of its original value. The temperature of the coupling water at all frequencies was 25° C.
as §1, with “represented” for “represented in FIGS. 2, 10-12”

HL-60 cells [2] = tested on: HL-60 cells
Method: (§2) Cell experiments were completed within 5 to 10 minutes of adding the glucopyranosides to the cell suspensions, and each data point represents an average ±SEM, where n=5 to 8. […] For this reason, we only studied the effects of MGP, HGP, HepGP and OGP on the ultrasound induced cytolysis of HL-60 cells.

HL-60 cells [3] = test: Reproduction assay of HL-60 cells following sonolysis; format: cell-based; details: for reproduction ratio one or two days post treatment: 7 mM HGP; for reproductive viability (reproduction fraction) over 24 hours after sonolysis: 5 seconds, 10 W, varying concentrations
Method: Cells were allowed to reproduce for 24 hours. Reproduction fraction ±SD (where n=6 to 8) is calculated by dividing the number of cells counted following 24 hours of reproduction by the number of cells counted at the start of incubation.
Control data points were run in triplicate with a standard deviation of less than 10%. Sonolysis points represent an average of six separate cell suspensions, with a standard deviation of less than 10%.
The reproduction ratio is the number of cells present one or two days post treatment divided by the number of cells present on the treatment day.
Reproduction Assay: for FIG. 5, a reproduction assay was conducted over a period of 10 days to determine the long term viability of cells following ultrasound treatment in the presence of either HGP or OGP at concentrations where 100% protection from cytolysis occurred. The long term viability of treated cell suspensions was compared to the long term viability of untreated control cell suspensions held under exactly the same conditions (FIG. 5). Immediately following sonolysis, a 100 μl aliquot of the 1 ml treated (or control) samples was used for Coulter counter analysis in order to confirm that 100% of the cells had survived the ultrasound treatment. Viability of the cells was determined by using a very small volume (approx. 20 μl) of suspension for trypan blue staining. The remaining ≈0.9 ml cell suspensions were diluted to 3 ml with fresh medium, centrifuged, washed with fresh medium, and finally re-suspended in fresh medium (2 ml). 100 μl of this new 2 ml of cells suspended in fresh medium was then used to determine the cell concentration. This cell concentration is defined as ‘the cell concentration at Day 0 after ultrasound treatment’ (Ci). Cell suspensions were then kept at 37° C. in a 5% CO2 incubator for a total of 10 days.
Over the 10 day period, cells had to be spun down occasionally and re-suspended in fresh medium to replenish the nutrients necessary for a healthy cell population. 100 μl aliquots of the original cell suspension were used to measure the cell concentration both before (Cfinal) and following (Cinitial) re-suspension in fresh medium. This procedure, although necessary, results in a slight underestimation in the expected number of cells on any given day, when compared to the original cell concentration, Ci. To account for this small, but significant underestimation, we calculated the actual number of cells that would have been observed had we not been periodically extracting small aliquots for the detection of cell numbers by the Coulter counter. This was done by calculating a ‘reproduction ratio’, determined by dividing Cfinal by Cinitial that was measured one or two days earlier and comparing this ratio to (Ci), to give a ‘real cell population’. It should be noted that this calculation is done simply as a matter of convenience and that the reproduction ability of the treated samples was compared to control samples that were treated in the same way over the day period, as shown in FIG. 5. Verification of this method is given by the fact that the cells of the control samples double approximately every day (FIG. 5), as expected for HL-60 cells under the conditions of incubation in the current study.

HL-60 cells [4] = test: Mechanical fragility test (Burrell wrist action shaker, glass beads), HL-60 cells; format: cell-based; details: for protection from mechanical induced cytolysis: 30 min shaking, 50% power, HGP 1-10 mM, HepGP 0.1-10 mM, MGP 10-30 mM, OGP 0.3-3 mM
Method: 10 ml borosilicate glass beads in a 125 ml conical flask. 10 ml cell suspension in the presence and absence (control) of various glucopyranosides (HGP, HepGP, MGP, and OGP) in a cell culture medium containing 10% DPBS solution. Shaking was conducted over a period of 30 minutes. Each data point represents ±SD, where n=5.
Mechanical Fragility Test: the effect of glucopyranosides on the mechanical fragility of the cells was determined by inducing mechanical shear stress to a cell suspension. This involved placing 10 mL of HL-60 cells in suspension in 125 ml sized screw capped conical flasks containing 10 mL of borosilicate solid-glass beads (Sigma-Aldrich, mean particle diameter of 3 mm), similar to the methods described elsewhere (Carstensen, E. L. et al. 1993; Miller, M. W. et al. 2003). The samples were then shaken in a Burrell wrist action shaker (model number 75, Burrell Scientific, Pittsburgh, Pa.) at 50% power for a duration of 30 minutes. Using this method, up to eight sample solutions could be run at one time. […] In samples containing glucopyranosides, the surfactant was dissolved in 1 ml of DPBS and added to 9 ml of the cell suspension.

HL-60 cells [5] = test: Exposure of HL-60 cells to glucopyranosides alone (no ultrasound); details: 15 minute exposure at highest concentrations used
Method: as §2

HL-525 cells = test: Sonolysis of HL-525 cells, % cytolysis; format: cell-based; details: 1 MHz (1057 kHz), 10 W, 5 sec
Method: Conditions: 42 kHz, 50% power, 5 sec, 20° C., % cytolysis ±SD (n=6).
Conditions: 354 kHz, 15 W, 5 sec, 20° C., % cytolysis ±SD (n=6).
Conditions: 614 kHz, 20 W, 5 sec, 20° C., % cytolysis ±SD (n=6).
Conditions: 1057 kHz, 10 W, 5 sec, 20° C., % cytolysis ±SD (n=6).

Compound: CCCCCCCNC(=O)OC[C@H]1O[C@H](OC)[C@H](O)[C@@H](O)[C@@H]1O [ANAMEG-7, methyl-6-O—(N-heptylcarbamoyl)-α-D-glucopyranoside]
- concentration giving complete (approximately 100%) protection from ultrasound induced cytolysis (HL-60 cells [1]; HL-60 cells): 3 mM

Compound: OC[C@H]1O[C@@H](OCCCC2CCCCC2)[C@H](O)[C@@H](O)[C@@H]1O [Cyglu-3, 3-cyclohexyl-1-propyl-β-D-glucoside]
- concentration giving complete (approximately 100%) protection from ultrasound induced cytolysis (HL-60 cells [1]; HL-60 cells): 5 mM

Compound: CCCCCCO[C@@H]1O[C@H](CO)[C@@H](O[C@H]2O[C@H](CO)[C@@H](O)[C@H](O)[C@H]2O)[C@H](O)[C@H]1O [HMP, Hexyl-β-D maltopyranoside]
- concentration giving complete (approximately 100%) protection from ultrasound induced cytolysis (HL-60 cells [1]; HL-60 cells): 1 mM

Compound: CCCCCCCCCCO[C@@H]1O[C@H](CO)[C@@H](O)[C@H](O)[C@H]1O [DGP, decyl-β-D-Glucopyranoside]
- lysis of cells on exposure (Coulter counter, trypan blue) (HL-60 cells [2]): immediate lysis of a large population of cells

Compound: CCCCCCCCO[C@H]1O[C@H](CO)[C@@H](O)[C@H](O)[C@H]1O [alphaOGP, n-octyl-α-D-glucopyranoside]
- effect on ultrasound induced cytolysis (% cytolysis) (HL-60 cells [1]; HL-60 cells): very slight protective effect

- effect on reproduction rate of the cells over 120 hours (HL-60 cells [5]): no detrimental effect
Compound: CCCCCCO[C@@H]1O[C@H](CO)[C@@H](O)[C@H](O)[C@H]1O [HGP, hexyl-β-D-Glucopyranoside]
- cells protected from immediate cytolysis (HL-60 cells [1]; 354 kHz): 100%
- cells protected from immediate cytolysis (HL-60 cells [1]; 614 kHz): 100%
- ultrasound induced cytolysis (HL-60 cells [1]; HGP 5 mM, 1.057 MHz, 15 seconds, 30 W): eliminated
- protection from sonolysis under a range of ultrasound intensities and exposure times (HL-60 cells [1]; HGP 5 mM, 1.057 MHz, extreme conditions with almost 100% cytolysis without HGP): could protect cells from cytolysis even during extreme conditions of sonolysis
- effect on ultrasound induced cytolysis (% cytolysis) (HL-60 cells [1]; HL-60 cells): fully protects
- effect on ultrasound induced cytolysis (HL-60 cells [1]; HL-60 cells, 42 kHz, 50% power): very small sonosensitization; also recorded: not at 42 kHz
- effect on ultrasound induced cytolysis (HL-60 cells [1]; HL-60 cells, 354 kHz, 15 W): fully protects
- effect on ultrasound induced cytolysis (HL-60 cells [1]; HL-60 cells, 614 kHz, 20 W): fully protects
- change of protection from cytolysis as frequency is decreased (HL-60 cells [1]; HL-60 cells): less effective
- reproduction ratio one or two days post treatment (HL-60 cells [3]; 354 kHz): continue to reproduce at the same rate
- reproduction ratio one or two days post treatment (HL-60 cells [3]; 614 kHz): continue to reproduce at the same rate
- reproduction of treated cells over 10 days (HL-60 cells [3]; HGP 5 mM, 1.057 MHz, 15 seconds, 40 W and 60 W): continue to reproduce at a rate comparable to that of untreated control cells
- reproductive viability (reproduction fraction) over 24 hours after sonolysis (HL-60 cells [3]): continue to reproduce at the same rate as untreated control samples
- protection from mechanical induced cytolysis (HL-60 cells [4]): none of the glucopyranosides tested

- effect on reproduction rate of the cells over 120 hours (HL-60 cells [5]): no detrimental effect
Compound: CO[C@@H]1O[C@H](CO)[C@@H](O)[C@H](O)[C@H]1O [MGP, Methyl-β-D-Glucopyranoside, reference compound]
- effect on ultrasound induced cytolysis (% cytolysis) (HL-60 cells [1]; HL-60 cells): no effect
- effect on ultrasound induced cytolysis at any ultrasound frequency (HL-60 cells [1]; HL-60 cells, 42 kHz to 1 MHz, MGP 10 to 30 mM): effectively has no effect
- protection from mechanical induced cytolysis (HL-60 cells [4]): none of the glucopyranosides tested
- protective effect for HL-525 cells compared to HL-60 cells (HL-525 cells): different protection effects

- effect on reproduction rate of the cells over 120 hours (HL-60 cells [5]): no detrimental effect
Compound: CCCCCCCO[C@@H]1O[C@H](CO)[C@@H](O)[C@H](O)[C@H]1O [HepGP, heptyl-β-D-Glucopyranoside]
- effect on ultrasound induced cytolysis (% cytolysis) (HL-60 cells [1]; HL-60 cells): fully protects
- concentration giving complete (approximately 100%) protection from ultrasound induced cytolysis (HL-60 cells [1]; HL-60 cells): 3 mM
- effect on ultrasound induced cytolysis (HL-60 cells [1]; HL-60 cells, 42 kHz, 50% power): very small sonosensitization
- effect on ultrasound induced cytolysis (HL-60 cells [1]; HL-60 cells, 614 kHz, 20 W): fully protects
- change of protection from cytolysis as frequency is decreased (HL-60 cells [1]; HL-60 cells): less effective
- reproductive viability (reproduction fraction) over 24 hours after sonolysis (HL-60 cells [3]): continue to reproduce at the same rate as untreated control samples
- protection from mechanical induced cytolysis (HL-60 cells [4]): none of the glucopyranosides tested
- effect on cell membrane stability to mechanical shear stress (HL-60 cells [4]; relatively high concentrations): significant destabilization of the cell membrane to mechanical shear stress
